Entries after “also recorded” stand apart in the source; their conditions may differ. Where two headings read alike, the source gives them in different places.
Key:
TNBS-induced colitis = test: Trinitrobenzene sulfonic acid (TNBS)-induced colitis model; assay type: in vivo, male SJL mice
Description: A study was conducted to determine the effects of Compound 1 compared to positive control prednisolone dosed by the oral (p.o.) route in trinitrobenzene sulfonic acid (TNBS)-induced colitis in male SJL mice (FIG. 5). The mice were divided into 5 groups. The mice were fasted for 12 to 16 hours prior to TNBS challenge. On day 0 of the study, mice in groups 2 through 5 were infused intrarectally (IR) with 50 μL TNBS solution (1.5 mg in 50% EtOH/PBS per mouse) to induce colitis. The mice in group 2 were dosed (PO) daily (QD) on days 0 to 3 with vehicle (0.5% HPMC, 0.1% Tween 80 in water). The mice in group 4 were dosed p.o. daily on days 0 to 3 with Compound 1 at 10 mpk, and the mice in group 5 were dosed p.o. daily on days 0 to 3 with Compound 1 at 30 mpk. Prednisone (group 3) was used as a positive control and was dosed p.o., QD on days 0 to 3. Group 1 served as naïve controls. On study day 4, the mice were anesthetized with Isoflurane, bled to exsanguination, and then euthanized for necropsy and tissue collection. Efficacy evaluation was based on animal body weight measurements, colon weights, colon lengths, colon weight per length ratios, histopathology of proximal and distal colons—evaluated as proximal only, distal only, or full colon (proximal and distal). Longitudinal sections of proximal and distal colon were stained with hematoxylin and eosin (H&E). Sections were analyzed using the criteria below and were scored for inflammation, gland loss, and mucosal necrosis. [table] [table] [table] [table] The histopathology sum score was calculated as a sum of inflammation, gland loss, erosion/necrosis (derived from the measure of total length vs. length of mucosal necrosis, i.e., percent), and hyperplasia scores.

[1] = IV/p.o. pharmacokinetic study in dog; assay type: in vivo, male beagle dogs; settings: for bioavailability: male, beagle, po, p.o. suspension in 0.5% HPMC
Description: (§1) Intravenous and oral (IV/p.o.) pharmacokinetic (PK) studies in rat, dog and monkey were carried out to facilitate the projection of human PK for Compound 1.
(§2) In the rat studies, Compound 1 was dosed both as a suspension (in 0.5% HPMC) and as a solution in 20% HPPCD. Experiments in the dog and monkey were dosed as a suspension in 0.5% HPMC.

[2] = IV/p.o. pharmacokinetic study in monkey; assay type: in vivo, male cynomolgus monkeys
Description: as §1, §2

[3] = Plasma drug concentrations after oral and intraperitoneal dosing (LC MS/MS); assay type: in vivo, male Balb/c mice; settings: male, Balb/c, mouse, read-out: blood levels; for concentration at 1 h: 1 h post dosing; for concentration at 6 h: 6 h post dosing
Description: (§3) The effect of both oral (p.o.) and intraperitoneal (i.p.) doses of Compound 1 on systemic EPO in male Balb/c mice was investigated, along with plasma drug concentrations at 1 h and 6 h post dosing. Systemic EPO was measured 6 h post dosing of Compound 1 using a commercially-available MSD assay system, correlated to standard curves. Plasma drug concentrations were quantitated by LC MS/MS. […] FIG. 1 depicts the EPO response to oral (p.o.) and intraperitoneal (i.p.) doses of Compound 1 at 6 h in BalbC mice.

DSS-induced colitis = test: Dextran sulfate sodium (DSS)-induced colitis model; assay type: in vivo, mice
Description: Colitis was induced in 121 mice by exposure to 3% DSS-treated drinking water from Day 0 to Day 5. Animals were dosed via oral gavage (p.o.) with Compound 1, 6-thioguanine, or vehicle control once a day (q.d.) from Day 6 to 19. Video endoscopy was performed on days 10, 14, and 19. At these time points, colitis severity was assessed in all animals using video endoscopy, where images were taken and colitis severity scored by a blinded observer. During each endoscopy procedure, stool consistency was recorded using a 0-4 scale and an image from each animal was captured at the most severe region of disease that was identified. Following endoscopy on Day 19, all animals for the efficacy component were euthanized with CO2 inhalation. Blood was collected via cardiac puncture and placed in K2EDTA tubes for preparation of plasma. A small whole blood sample was retained for the assessment of hemoglobin and hematocrit while the remaining sample was processed to plasma, then split into two samples and snap frozen. A complete blood count, including hematocrit and hemoglobin levels, was assessed using an automated PCE-90 Vet hematology unit (HTI). FIG. 3 depicts the serum hemoglobin concentration after 14 days of oral dosing Compound 1 in mice with dextran sulfate sodium (DSS)-induced colitis. FIG. 4 depicts Endoscopy Colitis Scores in mice with dextran sulfate sodium (DSS)-induced colitis dosed via oral gavage with Compound 1, 6-thioguanine, or vehicle control once a day after 19 days.

systemic EPO = test: Systemic EPO response after oral and intraperitoneal dosing (MSD assay); assay type: in vivo, male Balb/c mice; settings: 6 h post dosing
Description: as §3

[4] = Caco-2 cell monolayer permeability; assay type: in vitro ADME; settings: human, tested at 10 μM, read-out: apical-to-basolateral apparent permeability Papp
Description: In Caco-2 cell monolayers, Compound 1 had low apical-to-basolateral apparent permeability Papp value of <0.2×10^−6 cm/s when tested at 10 μM.

[5] = IV/p.o. pharmacokinetic study in rat; assay type: in vivo, male Sprague Dawley rats
Description: Separate cohorts (n=3) of non-fasted male Sprague Dawley rats were administered Compound 1 at a dose of 1 mg/kg intravenously (IV) via tail vein, 5 mg/kg orally as a solution, or 5 mg/kg orally as a suspension. Blood samples were collected at 0.033 (IV only), 0.083 (IV only), 0.25, 0.5, 1, 2, 4, 8, and 24 hrs post dose after administration. Blood was harvested via the jugular vein catheter. Blood samples were collected into tubes containing K2EDTA and placed on wet ice. The plasma fraction was separated by centrifugation and frozen at −20 to −80 ° C. Concentrations of Compound 1 in plasma were determined using a qualified liquid chromatography-triple quadrupole mass spectrometry. FIG. 2 depicts the plasma concentration of Compound 1 in healthy male SD rats over 24 hours.
as §1, §2

[6] = 10 and 30 mg/kg p.o. QD days 0 to 3

## O=C(O)c1cnn(-c2nc3cc(S(=O)(=O)c4ccccc4)c(Cl)cc3[nH]2)c1 [Compound 1, 1-(6-chloro-5-(phenylsulfonyl)-1H-benzo[d]imidazol-2-yl)-1H-pyrazole-4-carboxylic acid]
TNBS-induced colitis; [6]
  body weight loss: statistically significant inhibition of body weight loss; also recorded: protects against body weight loss
  colon histopathology: improvements in colon histopathology
  colon weight/length ratio: decreased colon weight/length ratios; also recorded: improves colon weight/length ratio
TNBS-induced colitis; 10 or 30 mpk p.o. QD days 0 to 3
  full-colon and proximal-colon histopathology: significant beneficial effects
TNBS-induced colitis; p.o. QD days 0 to 3
  histopathology inflammation score: improves the histopathology inflammation score
  histopathology summed score: improves the histopathology summed score
TNBS-induced colitis; p.o. dosing
  efficacy in mouse model of inflammatory bowel disease: excellent efficacy
[1]
  estimated fa*fg (fa: fraction absorbed; fg: fraction that escapes gut metabolism): ≤ 0.12
  terminal t1/2: short
[1]; in vivo
  bioavailability: ≤ 5%
[1]; plasma
  bioavailability: < 5%
[2]
  estimated fa*fg (fa: fraction absorbed; fg: fraction that escapes gut metabolism): ≤ 0.12
  terminal t1/2: short
[2]; male, cynomolgus monkey, plasma, po, p.o. suspension in 0.5% HPMC
  bioavailability: ≤ 5%
[3]; ip, 100 umol/kg i.p.
  concentration at 1 h: 42200 nM
  concentration at 6 h: 5100 nM
[3]; po, 100 umol/kg p.o.
  concentration at 1 h: 100 nM
  concentration at 6 h: 20 nM
DSS-induced colitis; p.o. dosing
  efficacy in mouse model of inflammatory bowel disease: excellent efficacy
DSS-induced colitis; p.o. dosing, mouse models of inflammatory bowel disease
  systemic pharmacology resulting in increases in EPO/hematocrit: no systemic pharmacology resulting in increases in EPO/hematocrit was observed
DSS-induced colitis; p.o. q.d. Day 6 to 19, 3% DSS Day 0 to 5
  Endoscopic Colitis Scores: effective at ameliorating DSS induced colitis
Systemic EPO; 100 umol/kg i.p.
  EPO stimulation: 34 fold above vehicle control
Systemic EPO; 100 umol/kg p.o.
  EPO stimulation: no EPO stimulation
[4]
  Papp A→B at 10 μM: < 0.2 ×10⁻⁶ cm/s
[5]
  estimated fa*fg (fa: fraction absorbed; fg: fraction that escapes gut metabolism): ≤ 0.12
  terminal t1/2: short
[5]; male, Sprague-Dawley, plasma, po, 5 mg/kg, p.o. dosing
  bioavailability: ≤ 5%
